Experimental data from patent publication US20260022143A1, “Cyclic Peptide Inhibitors of IL-23” (JANSSEN PHARMACEUTICA NV, priority 2022, published 2026).
Starred links: 1 amine or outer side, 2 acyl side, 3 side chain; linkers in the order of their positions; H or OH if unused. Positions of bridges follow the written chain, without caps; N, C: chain ends. Non-standard residues stand in square brackets, D forms with d. Residues, ends and D or L forms follow the SMILES beside them. *: point of attachment. Trp(7-Me) = Cc1cccc2c(C[C@H](N)C(=O)O)c[nH]c12; Hexanoyl(6-NMe3+) = C[N+](C)(C)CCCCCC(=O)*; X1 = CN(CC[C@H](N[*:1])C(=O)[*:2])[*:3]; 2Nal = N[C@@H](Cc1ccc2ccccc2c1)C(=O)O; AEF = NCCOc1ccc(C[C@H](N)C(=O)O)cc1; X19 = C[N+](C)(C)C[C@@H](CC(=O)O)N*; Piperazinyl(4-Me) = CN1CCN(*)CC1; 3Pal = N[C@@H](Cc1cccnc1)C(=O)O; Lys(Me) = CNCCCC[C@H](N)C(=O)O; X5 = C[N+](C)(C)CCOCCOCC(=O)*; Pen = CC(C)(S)[C@H](N)C(=O)O; Thp = NC1(C(=O)O)CCOCC1; Dap = NC[C@H](N)C(=O)O; X3 = C[N+](C)(C)CCCCC*; Me2NCH2CH2 = CN(C)CC*; X25 = COCCOCCN(C)*; Sar = CNCC(=O)O

How the values were obtained:
[1] = Exposed Polar Surface Area (EPSA); assay type: physicochemical; details: SFC on Chirex 3014 column; sample 1 mM DMSO stock; read-out: EPSA
Outline: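 SFC retention on a Chirex 3014 (S)-valine/(R)-1-(α-naphthyl)ethylamine column, 35 °C, CO2 with MeOH (20 mM ammonium formate) gradient 5–60% at 20%/min, 14 MPa outlet. Retention times converted to EPSA (Å^2) via linear calibration with 8 standards; samples from 1 mM DMSO stock, run in duplicate.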

IL-23R = molecular target: T1, IL-23R (Homo sapiens, UniProt Q5VWK5); assay: IL23R Reporter Assay; assay type: cell-based; details: HEK293 cells containing IL-23R, IL-12RP1 and STAT-inducible firefly luciferase reporter; 10 ng/mL IL-23 (EC90); 5 h at 37° C.; read-out: IL23R Reporter Assay
T1 construct: host or cells: HEK293
T1 sequence (Q5VWK5 24-629): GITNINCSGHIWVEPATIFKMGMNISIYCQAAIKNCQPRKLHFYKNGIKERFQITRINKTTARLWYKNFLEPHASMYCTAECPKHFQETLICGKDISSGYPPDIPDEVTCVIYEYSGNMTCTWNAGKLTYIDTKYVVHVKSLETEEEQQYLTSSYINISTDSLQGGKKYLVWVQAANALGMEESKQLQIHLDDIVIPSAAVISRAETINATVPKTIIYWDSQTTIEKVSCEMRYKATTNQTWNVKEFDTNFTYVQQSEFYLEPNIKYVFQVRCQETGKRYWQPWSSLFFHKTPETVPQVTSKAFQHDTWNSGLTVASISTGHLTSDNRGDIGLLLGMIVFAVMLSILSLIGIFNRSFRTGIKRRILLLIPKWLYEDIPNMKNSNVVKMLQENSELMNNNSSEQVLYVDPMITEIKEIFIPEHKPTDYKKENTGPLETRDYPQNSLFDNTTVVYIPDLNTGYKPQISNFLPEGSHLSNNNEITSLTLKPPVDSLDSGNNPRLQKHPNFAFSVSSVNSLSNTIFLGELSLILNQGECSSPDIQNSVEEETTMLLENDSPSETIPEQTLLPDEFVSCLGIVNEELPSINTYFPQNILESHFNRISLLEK

| EPSA [1] [A^2] | IC50 (IL-23R) [nM] | Compound |
| --- | --- | --- |
| 145 | 5.2 | Cc1cccc2c(C[C@@H]3NC(=O)[C@H]([C@@H](C)O)NC(=O)[C@H](CC(=O)N(C)C)NC(=O)[C@@H](NC(=O)CCCCC[N+](C)(C)C)C(C)(C)SSC(C)(C)[C@@H](C(=O)N[C@@H](Cc4ccc(OCCCCC[N+](C)(C)C)cc4)C(=O)N[C@@H](Cc4ccc5ccccc5c4)C(=O)NC4(C(=O)N[C@@H](CCC(=O)N(C)C)C(=O)N[C@@H](CC(N)=O)C(=O)N[C@@H](Cc5cccnc5)C(=O)N(C)CC(=O)N(C)C)CCOCC4)NC(=O)[C@H](CCC(=O)N(C)C)NC3=O)c[nH]c12 [compound 101, 5cpaCO-Pen(3)-N(N(Me)2)-T-7MeW-Q(N(Me)2)-Pen(3)-TMAPF-2Nal-THP-Q(N(Me)2)-N-3Pya-Sar-CON(Me)2] ({Hexanoyl(6-NMe3+)}-[Pen]D(NMe2)T[Trp(7-Me)]E(NMe2)[Pen]Y(X3)[2Nal][Thp]E(NMe2)N[3Pal][Sar]-NMe2; disulfide 1-6) |
| 158 | 5.4 | CC(=O)NCCCC[C@@H]1NC(=O)[C@H](Cc2c[nH]c3c(C)cccc23)NC(=O)[C@H]([C@@H](C)O)NC(=O)[C@H](CC(N)=O)NC(=O)[C@@H](NC(=O)CCCCC[N+](C)(C)C)C(C)(C)SSC(C)(C)[C@@H](C(=O)N[C@@H](Cc2ccc(OCCN(C)C)cc2)C(=O)N[C@@H](Cc2ccc3ccccc3c2)C(=O)NC2(C(=O)N[C@@H](CNC(C)=O)C(=O)N[C@@H](CC(N)=O)C(=O)N[C@@H](Cc3cccnc3)C(=O)N(C)CC(N)=O)CCOCC2)NC1=O [compound 103] ({Hexanoyl(6-NMe3+)}-[Pen]NT[Trp(7-Me)]K(Ac)[Pen]Y(Me2NCH2CH2)[2Nal][Thp][Dap](Ac)N[3Pal][Sar]-NH2; disulfide 1-6 (inferred)) |
| 153 | 6.5 | CC(=O)N[C@@H]1C(=O)N[C@@H](CC(=O)N(C)C)C(=O)N[C@@H]([C@@H](C)O)C(=O)N[C@@H](Cc2c[nH]c3c(C)cccc23)C(=O)N[C@@H](CCCCN(C)C(C)=O)C(=O)N[C@H](C(=O)N[C@@H](Cc2ccc(OCCN(C)C)cc2)C(=O)N[C@@H](Cc2ccc3ccccc3c2)C(=O)NC2(C(=O)N[C@@H](CCC(=O)O)C(=O)N[C@@H](CC(N)=O)C(=O)N[C@@H](Cc3cccnc3)C(=O)N(C)CC(=O)N(C)C)CCOCC2)C(C)(C)SSC1(C)C [compound 106, MeCO-Pen(3)-N(N(Me)2)-T-7MeW-K(NMeAc)-Pen(3)-AEF(N(Me)2)-2Nal-THP-E-N-3Pya-Sar-CON(Me)2] (Ac-[Pen]D(NMe2)T[Trp(7-Me)][Lys(Me)](Ac)[Pen]Y(Me2NCH2CH2)[2Nal][Thp]EN[3Pal][Sar]-NMe2; disulfide 1-6 (inferred)) |
| 169 | 3.8 | COCCOCCN(C)C(=O)CN(C)C(=O)[C@H](Cc1cccnc1)NC(=O)[C@H](CC(N)=O)NC(=O)[C@H](CCC(=O)O)NC(=O)C1(NC(=O)[C@H](Cc2ccc3ccccc3c2)NC(=O)[C@H](Cc2ccc(OCCN)cc2)NC(=O)[C@H]2NC(=O)[C@H](CCCCNC(C)=O)NC(=O)[C@H](Cc3c[nH]c4c(C)cccc34)NC(=O)[C@H]([C@@H](C)O)NC(=O)[C@H](CC(N)=O)NC(=O)[C@@H](NC(C)=O)C(C)(C)SSC2(C)C)CCOCC1 [compound 113] (Ac-[Pen]NT[Trp(7-Me)]K(Ac)[Pen][AEF][2Nal][Thp]EN[3Pal][Sar]-X25; disulfide 1-6 (inferred)) |
| 173 | 28 | CC(=O)NCCCC[C@@H]1NC(=O)[C@H](Cc2c[nH]c3c(C)cccc23)NC(=O)[C@H]([C@@H](C)O)NC(=O)[C@H](CC(N)=O)NC(=O)[C@@H](NC(C)=O)C(C)(C)SSC(C)(C)[C@@H](C(=O)N[C@@H](Cc2ccc(OCCN)cc2)C(=O)N[C@@H](Cc2ccc3ccccc3c2)C(=O)NC2(C(=O)N[C@@H](CCC(=O)O)C(=O)N[C@@H](CC(N)=O)C(=O)N[C@@H](Cc3cccnc3)C(=O)N(C)CC(=O)N3CCN(C)CC3)CCOCC2)NC1=O [compound 114] (Ac-[Pen]NT[Trp(7-Me)]K(Ac)[Pen][AEF][2Nal][Thp]EN[3Pal][Sar]-{Piperazinyl(4-Me)}; disulfide 1-6 (inferred)) |
| 138 | 2.1 | CC(=O)N[C@@H]1C(=O)N[C@@H](CC(=O)N(C)C)C(=O)N[C@@H]([C@@H](C)O)C(=O)N[C@@H](Cc2c[nH]c3c(C)cccc23)C(=O)N[C@@H](CCC(=O)N(C)C)C(=O)N[C@H](C(=O)N[C@@H](Cc2ccc(OCCN(C)C)cc2)C(=O)N[C@@H](Cc2ccc3ccccc3c2)C(=O)NC2(C(=O)N[C@@H](CCC(=O)N(C)C)C(=O)N[C@@H](CC(N)=O)C(=O)N[C@@H](Cc3cccnc3)C(=O)N(C)CC(=O)N(C)C)CCOCC2)C(C)(C)SSC1(C)C [compound 118, MeCO-Pen(3)-N(N(Me)2)-T-7MeW-Q(N(Me)2)-Pen(3)-AEF(N(Me)2)-2Nal-THP-Q(N(Me)2)-N-3Pya-Sar-CON(Me)2] (Ac-[Pen]D(NMe2)T[Trp(7-Me)]E(NMe2)[Pen]Y(Me2NCH2CH2)[2Nal][Thp]E(NMe2)N[3Pal][Sar]-NMe2; disulfide 1-6 (inferred)) |
| 159 | 6.3 | CC(=O)N[C@@H]1C(=O)N[C@@H](C)C(=O)N[C@@H]([C@@H](C)O)C(=O)N[C@@H](Cc2c[nH]c3c(C)cccc23)C(=O)N[C@@H](C)C(=O)N[C@H](C(=O)N[C@@H](Cc2ccc(OCCN(C)C)cc2)C(=O)N[C@@H](Cc2ccc3ccccc3c2)C(=O)NC2(C(=O)N[C@@H](CCC(=O)O)C(=O)N[C@@H](CC(N)=O)C(=O)N[C@@H](Cc3cccnc3)C(=O)N(C)CC(=O)N(C)C)CCOCC2)C(C)(C)SSC1(C)C [compound 119] (Ac-[Pen]AT[Trp(7-Me)]A[Pen]Y(Me2NCH2CH2)[2Nal][Thp]EN[3Pal][Sar]-NMe2; disulfide 1-6 (inferred)) |
| 145 | 13 | CC(=O)N[C@@H]1C(=O)N[C@@H](C)C(=O)N[C@@H]([C@@H](C)O)C(=O)N[C@@H](Cc2c[nH]c3c(C)cccc23)C(=O)N[C@@H](C)C(=O)N[C@H](C(=O)N[C@@H](Cc2ccc(OCCN(C)C)cc2)C(=O)N[C@@H](Cc2ccc3ccccc3c2)C(=O)NC2(C(=O)N[C@@H](C)C(=O)N[C@@H](CC(N)=O)C(=O)N[C@@H](Cc3cccnc3)C(=O)N(C)CC(=O)N(C)C)CCOCC2)C(C)(C)SSC1(C)C [compound 121] (Ac-[Pen]AT[Trp(7-Me)]A[Pen]Y(Me2NCH2CH2)[2Nal][Thp]AN[3Pal][Sar]-NMe2; disulfide 1-6) |
| 141 | 2.1 | CC(=O)N[C@@H]1C(=O)N[C@@H](CC(=O)N(C)C)C(=O)N[C@@H]([C@@H](C)O)C(=O)N[C@@H](Cc2c[nH]c3c(C)cccc23)C(=O)N[C@@H](CCCCN(C)C(C)=O)C(=O)N[C@H](C(=O)N[C@@H](Cc2ccc(OCCN(C)C)cc2)C(=O)N[C@@H](Cc2ccc3ccccc3c2)C(=O)NC2(C(=O)N[C@@H](CCCCN(C)C(C)=O)C(=O)N[C@@H](CC(N)=O)C(=O)N[C@@H](Cc3cccnc3)C(=O)N(C)CC(=O)N(C)C)CCOCC2)C(C)(C)SSC1(C)C [compound 122, MeCO-Pen(3)-N(N(Me)2)-T-7MeW-K(NMeAc)-Pen(3)-AEF(N(Me)2)-2Nal-THP-K(NMeAc)-N-3Pya-Sar-CON(Me)2] (Ac-[Pen]D(NMe2)T[Trp(7-Me)][Lys(Me)](Ac)[Pen]Y(Me2NCH2CH2)[2Nal][Thp][Lys(Me)](Ac)N[3Pal][Sar]-NMe2; disulfide 1-6) |
| 181 | 2 | CC(=O)NCCCC[C@@H]1NC(=O)[C@H](Cc2c[nH]c3c(C)cccc23)NC(=O)[C@H]([C@@H](C)O)NC(=O)[C@H](CC(N)=O)NC(=O)[C@@H](NC(=O)[C@@H](CCC(=O)N[C@H](CC(=O)O)C[N+](C)(C)C)NC(C)=O)C(C)(C)SSC(C)(C)[C@@H](C(=O)N[C@@H](Cc2ccc(OCCN)cc2)C(=O)N[C@@H](Cc2ccc3ccccc3c2)C(=O)NC2(C(=O)N[C@@H](CCCCNC(C)=O)C(=O)N[C@@H](CC(N)=O)C(=O)N[C@@H](Cc3cccnc3)C(=O)N(C)CC(N)=O)CCOCC2)NC1=O [compound 125] (Ac-[dE](X19)[Pen]NT[Trp(7-Me)]K(Ac)[Pen][AEF][2Nal][Thp]K(Ac)N[3Pal][Sar]-NH2; disulfide 2-7 (inferred)) |
| 164 | 3.4 | CC(=O)N[C@@H]1C(=O)N[C@@H](CC(=O)N(C)C)C(=O)N[C@@H]([C@@H](C)O)C(=O)N[C@@H](Cc2c[nH]c3c(C)cccc23)C(=O)N[C@@H](CCN(C)C(=O)COCCOCC[N+](C)(C)C)C(=O)N[C@H](C(=O)N[C@@H](Cc2ccc(OCCN)cc2)C(=O)N[C@@H](Cc2ccc3ccccc3c2)C(=O)NC2(C(=O)N[C@@H](CCC(=O)O)C(=O)N[C@@H](CC(N)=O)C(=O)N[C@@H](Cc3cccnc3)C(=O)N(C)CC(=O)N(C)C)CCOCC2)C(C)(C)SSC1(C)C [compound 130, MeCO-Pen(3)-N(N(Me)2)-T-7MeW-Dab(NMecPEG2a)-Pen(3)-AEF-2Nal-THP-E-N-3Pya-Sar-CON(Me)2] (Ac-[Pen]D(NMe2)T[Trp(7-Me)][X1](X5)[Pen][AEF][2Nal][Thp]EN[3Pal][Sar]-NMe2; disulfide 1-6) |
